Here are results for 1 compound from patent US10106536B2, “Imidazo(4,5-B) pyridin-2-yl amides as KV7 channel activators” (Knopp Biosciences LLC, priority 2013, dated 2018).

The target of the experiment is T1, Kv7.2/7.3 (Homo sapiens, UniProt O43525+O43526).
T1 construct: host or cells: HEK cells, tetracycline-inducible expression
Nature of the experiment: Kv7.2/7.3 activation assay, QPatch planar patch-clamp, single concentration screen. It counts as cell-based. The conditions noted are these: compound 10 μM; Kv7.2/Kv7.3 co-expressing HEK cells; steady-state current at end of 1 s pulse to −30 mV. As to the method:
Kv7.2/7.3 Activation Assay
The ability of compounds to potentiate K-currents in KV7.2/7.3 containing HEK cells was assessed using planar patch-clamp on the QPatch automated screening platform.
The hKV7.2/7.3 cell line was obtained from Chantest (Cleveland, Ohio 44128) cat.# CT6147. These HEK cells will express the Kv7.2/7.3 ion channels when induced.
Cell Culture: Cells were maintained in a media containing DMEM/F12; 50/50 (GIBCO cat.#11330), 10% Fetal Bovine Serum (FBS) (GIBCO cat.#26140), 100 units/mL Penicillin-Streptomycin (GIBCO cat.#15140), 0.005 mg/mL Blasticidin (INVIVOGEN cat.# ant-bl-1), 0.5 mg/mL Geneticin (GIBCO cat.#10131), 0.1 mg/mL Zeocin (GIBCO cat.# R25001). Cells used in the electrophysiology assay were maintained in a media without Blasticidin, Geneticin and Zeocin for 2 days and channel expression was induced by adding tetracycline (BIOLINE cat.# BIO-87030) at a final concentration of […]. Cells were grown in T-175 flask to ˜75% confluency. Currents were recorded 24 hours after channel induction.
Test compounds were prepared by performing serial dilutions on a Biomek NX^P (BECKMAN COULTER). Final dilutions were made in external recording solution with a final DMSO concentration of 0.1% DMSO. For single concentration screens each plate had 10 μM retigabine as a positive control and 0.1% DMSO as a negative control.
On the day of the experiment cells were washed with Hank's Balanced Salt Solution (HBBS) (GIBCO cat.#14175) and harvested with Tryple (GIBCO cat.#12604). Cells were then centrifuged at 2000 rpm for 5 minutes and resuspended in CHO-S-SFM (GIBCO cat.#12052) at ˜3×10^6 cells/mL. Cells were stirred for 30 minutes before experiments were started. External recording solution contained (in mM): NaCl (145), KCl (4), CaCl2 (2), MgCl2 (1), HEPES (10) and Glucose (10); pH was adjusted to 7.4 with NaOH and the osmolarity was adjusted to 300-305 mOsM with sucrose if necessary. Internal solution contained (in mM): KCl (125), KF (10), EGTA (5), Na2ATP (5), MgCl2 (3.2), HEPES (5); pH was adjusted to 7.2 with KOH and the osmolarity was adjusted to 298-302 mOsM with sucrose.
Potassium channel activity was measured on the QPatch HTX (Sophion Bioscience) using QPlates with 48-wells/plate. Each cell was taken as an independent experiment and only one compound was tested per well. Potassium channel activity was elicited by holding at −80 mV and stepping to −30 mV for 1 s followed by a 100 ms pulse to −120 mV.
Baseline conditions were obtained by recording 5 sweeps in the external solution only, this was repeated for three applications of the external solution. The effect of test compounds on elicited current was then assessed by recording 5 sweeps in the presence of a 3 μM or 10 μM compound solution. The steady-state current at the end of the 1 s pulse to −30 mV was measured to determine the fold increase from baseline.
Background: The patch-clamp technique gives a direct electrical read-out from membranes.

Each structure is given as a SMILES string.

As to `O=C(CC1CCCCC1)Nc1nc2ccc(C(F)(F)F)nc2n1C1CCC1` [Example 43, N-(3-cyclobutyl-5-(trifluoromethyl)-3H-imidazo[4,5-b]pyridin-2-yl)-2-cyclohexylacetamide], the “Kv7.2/7.3 Activity at 10 μM (increase in current over baseline)” value is “+++ (>6-fold increase over baseline (+++))”.
